Consider 1 substance from patent US20190338290A1, “TREATMENT OF SARCOMA” (MEMORIAL SLOAN KETTERING CANCER CENTER, priority 2017, published 2019).

This data set deals with SS18-SSX / KDM2B co-localization. The data set can be described thus: Proximity ligation assay (PLA) of SS18-SSX and KDM2B. Format: cell-based, human. Particulars: HS-SY-II cells, SS18-SSX knockdown. As for the experimental part: Indicated synovial sarcoma cell lines were seeded at 3×10^4 cells/well in culture treated 8-well chamber slides and treated as previously described (Laporte et al., 2016). Primary antibodies for PLA were used at 1/1000 dilution: SS18 (Santa-Cruz Biotechnologies, sc-28698), KDM2B (Abnova, H00084678-M09), HA (Santa-Cruz Biotechnologies, sc-805). Proximity ligation was performed utilizing the Duolink® In Situ Red Starter Kit Mouse/Rabbit (Sigma-Aldrich, DUP92101-1KT) according to the manufacturer's protocol. Fluorescence was detected using a Zeiss Axioplan2 microscope at 40×. Images were quantified in triplicate using ImageJ software (NIH) as foci per nucleus, defined as the number of interaction points counted per nucleus. For PLA analysis upon SS18-SSX knockdown, duplex oligo (sense, […]; antisense, […]) SS18-SSX siRNAs were designed to target the SSX portion of SS18-SSX using the Integrated. DNA Technologies RNA interference (RNAi) design tool, and synthesized by Integrated DNA Technologies (IDT) as previously described (Lubieniecka et al., 2008). HS-SY-II cells were seeded in 6-well plates. At 60% confluence, cells were transfected with 50 pmol siSS18-SSX and 9 μL Lipofectamine RNAiMAX transfection reagent (Invitrogen) in Opti-MEM serum free media (Life Technologies). […]

On to “SSX targeting siRNA: duplex oligo siRNA (sense CAAGAAGCCAGCAGAGGAATT; antisense UUCCUCUGCUGGCUUCUUGTT) designed to target the SSX portion of SS18-SSX (chemistry not given here)”, for which the “PLA signal (SS18 and KDM2B antibodies)” value is “abolished”.
